Like-named read-outs stand apart in the source and are kept apart here.
Experiments:
FGFR1 kinase = FGFR1 kinase (Homo sapiens (Human), UniProt P11362); assay: Enzymologic experiment of FGFR1 (TR-FRET); assay type: biochemical; conditions: FGFR1 kinase activity
Experimental: In this experiment, the inhibitory effect of the compounds on FGFR1 kinase activity was tested by a fluorescence resonance energy transfer (TR-FRET) method, and the half maximal inhibitory concentration (IC50) of the compounds on the FGFR1 kinase activity was determined.
1) 1˜5 μL of FGFR1 enzyme solution was added to a 384-well plate, and the final concentration of the enzyme was 0.1˜5 nM.
2) 1˜5 μL of diluted solution in gradient of the compound was added.
3) 1˜5 μL of a substrate mixture containing substrate polypeptide with a final concentration of 5˜50 nM and ATP with a final concentration of 10˜200 μM was added.
4) The mixture was incubated for 0.5˜3 hours at room temperature.
5) 10 μL of EDTA and a test solution comprising labeled antibody were added, and the plate was incubated for 1 hour at room temperature.
6) The fluorescence signal values of each plate were determined by a microplate reader at 665 nm.
7) The inhibition rates were calculated according to the fluorescence signal values.
8) The IC50 of the compound was obtained by curve fitting according to the inhibition rates at different concentrations, and the enzymatic activity of the specific example compounds is shown in Table 1.

Hep 3B cells = assay: Inhibition of Hep 3B cell proliferation (CellTiter-Glo); assay type: cell-based
Experimental: In this experiment, the inhibitory effect of the compounds on Hep 3B cell proliferation was tested by a CellTiter-Glo method, and the half maximal inhibitory concentration (IC50) of the compounds on the activity of cell proliferation was determined.
1) A 96-well cell culture plate was seeded with 50˜100 μL of Hep 3B cell suspension at a density of 1˜5×10^4 cells/ml. The culture plate was incubated in an incubator for 16˜24 hours (37° C., 5% CO2).
(§1) 2) Different concentrations of the test compound in a gradient dilution were added to the cells in the culture plate. The culture plate was incubated in an incubator for 72 hours (37° C., 5% CO2).
(§2) 3) 50˜100 μL of CellTiter-Glo reagent were added to each well. Then, the culture plate was shaken or left to stand for 5˜30 minutes at room temperature.
(§3) 4) The chemiluminescence signal values of each plate were determined by a microplate reader.
(§4) 5) The inhibition rates were calculated according to the chemiluminescence signal values.

HuH-7 cells = assay: Inhibition of HuH-7 cell proliferation (CellTiter-Glo); assay type: cell-based; conditions: Homo sapiens, Huh-7, 72 h, read-out: HuH-7 IC50
Experimental: In this experiment, the inhibitory effect of the compounds on HuH-7 cell proliferation was tested by a CellTiter-Glo method, and the half maximal inhibitory concentration (IC50) of the compounds on the activity of cell proliferation was determined.
1) A 96-well cell culture plate was seeded with 50˜100 μL of HuH-7 cell suspension at a density of 1˜5×10^4 cells/ml. The culture plate was incubated in an incubator for 16˜24 hours (37° C., 5% CO2).
as §1
3) 50˜100 μL of CellTiter-Glo reagent was added to each well. Then, the culture plate was shaken or left to stand for 5˜30 minutes at room temperature.
as §3, §4
(§5) 6) The IC50 of the compound was obtained by curve fitting according to the inhibition rates at different concentrations, and the cell activity of the specific example compounds is shown in Table 2.

SK-HEP-1 cells = assay: Inhibition of SK-HEP-1 cell proliferation (CellTiter-Glo); assay type: cell-based; conditions: read-out: SK-HEP-1 IC50
Experimental: In this experiment, the inhibitory effect of the compounds on SK-HEP-1 cell proliferation was tested by a CellTiter-Glo method, and the half maximal inhibitory concentration (IC50) of the compounds on the activity of cell proliferation was determined.
1) A 96-well cell culture plate was seeded with 50˜100 μL of SK-HEP-1 cell suspension at a density of 1˜5×10^4 cells/ml. The culture plate was incubated in an incubator for 16˜24 hours (37° C., 5% CO2).
as §1, §2, §3, §4, §5

[1] = Pharmacokinetic (PK) analysis in rats; assay type: in vivo, Sprague Dawley (SD) rats; conditions: SD rats, single intragastric administration, 5 mg/kg; for Peak Time tmax: (sampling in hours); for AUC(0-t) / AUC(0-inf) / half-life / MRT / Cmax: Sprague-Dawley, rat, plasma, po; for AUC(0-t): read-out: Area Under Curve AUC0-t; for AUC(0-inf): read-out: Area Under Curve AUC0-∞; for half-life: read-out: Half-Time t1/2 (converted); for MRT: read-out: Mean Residence Time MRT; for Cmax: read-out: Plasma Concentration Cmax
Experimental: 1) 0.2 ml of intravenous blood was collected and placed in a K2EDTA test tube. The blood was centrifuged at room temperature at the speed of 1000˜3000×g for 5˜20 minutes to isolate the plasma, which was then stored at −80° C.
2) 160 μL of acetonitrile was added to 40 μL of plasma sample for precipitation, and then the mixture was centrifuged at the speed of 500˜2000×g for 5˜20 minutes.
3) 100 μL of treated solution was taken, and the concentration of the test compound was analyzed by LC/MS/MS. The LC/MS/MS analytical instrument was AB Sciex API 4000. • Liquid chromatography analysis: • Condition of Liquid chromatography: Shimadzu LC-20AD pump • Chromatographic column: phenomenex Gemiu 5 um C18 50×4.6 mm • Mobile phase: Solution A is 0.1% formic acid aqueous solution, and Solution B is acetonitrile • Flow rate: 0.8 mL/min • Elution time: 0-3.5 minutes, the eluent was used as follows: […]

[2] = Homo sapiens, Hep3B, 72 h, read-out: Hep 3B IC50, Hep 3B cell proliferation, 72 hours, CellTiter-Glo
[3] = read-out: Hep 3B IC50, Hep 3B cell proliferation, 72 hours, CellTiter-Glo

Chain of FGFR1 kinase (P11362 22-822): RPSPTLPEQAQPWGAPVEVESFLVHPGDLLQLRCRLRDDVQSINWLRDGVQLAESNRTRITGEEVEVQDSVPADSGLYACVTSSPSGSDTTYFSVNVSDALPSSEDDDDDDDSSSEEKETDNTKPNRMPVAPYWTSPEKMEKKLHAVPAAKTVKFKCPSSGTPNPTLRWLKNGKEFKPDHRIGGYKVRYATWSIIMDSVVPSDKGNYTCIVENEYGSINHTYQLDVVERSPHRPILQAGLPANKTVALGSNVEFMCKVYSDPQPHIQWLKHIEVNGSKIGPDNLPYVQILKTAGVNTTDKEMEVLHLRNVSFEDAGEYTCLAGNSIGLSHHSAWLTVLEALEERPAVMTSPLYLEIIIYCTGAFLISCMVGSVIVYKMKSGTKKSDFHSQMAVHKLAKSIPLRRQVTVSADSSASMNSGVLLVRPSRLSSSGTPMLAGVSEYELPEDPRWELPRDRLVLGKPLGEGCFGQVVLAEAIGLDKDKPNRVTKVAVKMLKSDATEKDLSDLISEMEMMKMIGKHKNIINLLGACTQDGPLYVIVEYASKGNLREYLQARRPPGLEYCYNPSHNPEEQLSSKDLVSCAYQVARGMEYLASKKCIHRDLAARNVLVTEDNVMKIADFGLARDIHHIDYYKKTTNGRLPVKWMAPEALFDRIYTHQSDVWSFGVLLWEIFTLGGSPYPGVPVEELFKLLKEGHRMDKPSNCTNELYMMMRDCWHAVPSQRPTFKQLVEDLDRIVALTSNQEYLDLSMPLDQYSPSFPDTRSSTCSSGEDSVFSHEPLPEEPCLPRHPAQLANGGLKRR

Row | SMILES | IC50 (FGFR1 kinase) | IC50 (Hep 3B cells; [2]) | IC50 (HuH-7 cells) | IC50 (SK-HEP-1 cells; Homo sapiens, SK-HEP1, 72 h) | Peak Time tmax [1] | AUC(0-t) [1] | AUC(0-inf) [1] | half-life [1] | MRT [1] | Cmax [1] | IC50 (Hep 3B cells; [3]) | IC50 (SK-HEP-1 cells; SK-HEP-1 cell proliferation, 72 hours, CellTiter-Glo)
1 | N#Cc1cnc(NC(=O)N2CCCc3cc(CN4CCCCOC4=O)c(C=O)nc32)cc1N[C@@H]1CCOC1 [Example 34, (R)-N-(5-Cyano-4-((tetrahydrofuran-3-yl)amino)pyridin-2-yl)-7-formyl-6-((2-carbonyl-1,3-oxazepin-3-yl)methyl)-3,4-dihydro-1,8-naphthyridin-1(2H)-carboxamide] | > 10000 nM | 2.3 nM | 4.9 nM | > 10000 nM |  |  |  |  |  |  |  | 
2 | CO[C@H]1CCN(c2cc(NC(=O)N3CCCc4cc(CN5CCCOC5=O)c(C=O)nc43)ncc2C#N)C1 [Example 50, (S)-N-(5-Cyano-4-(3-methoxypyrrolidin-1-yl)pyridin-2-yl)-7-formyl-6-((2-carbonyl-1,3-oxazinan-3-yl)methyl)-3,4-dihydro-1,8-naphthyridin-1(2H)-carboxamide] | > 10000 nM | 5.5 nM | 15.3 nM | > 10000 nM |  |  |  |  |  |  |  | 
3 | N#Cc1cnc(NC(=O)N2CCCc3cc(CN4CCOCC4=O)c(C=O)nc32)cc1NCCOC1CCCC1 [Example 5, N-(5-Cyano-4-((2-(cyclopentyloxy)ethyl)amino)pyridin-2-yl)-7-formyl-6-((3-carbonylmorpholino)methyl)-3,4-dihydro-1,8-naphthyridin-1(2H)-carboxamide] | > 10000 nM | 8.2 nM | 34.9 nM | > 10000 nM |  |  |  |  |  |  |  | 
4 | CO[C@H]1CCCC1Nc1cc(NC(=O)N2CCCc3cc(CN4CCOCC4=O)c(C=O)nc32)ncc1C#N (stereo partly drawn) [Example 15, N-(5-Cyano-4-(((cis)-2-methoxycyclopentyl)amino)pyridin-2-yl)-7-formyl-6-((3-carbonylmorpholino)methyl)-3,4-dihydro-1,8-naphthyridin-1(2H)-carboxamide] | > 10000 nM | 3 nM | 4.9 nM | > 10000 nM |  |  |  |  |  |  |  | 
5 | COC[C@@H](C)Oc1cc(NC(=O)N2CCCc3cc(CN4CCCCOC4=O)c(C=O)nc32)ncc1C#N [Example 35] | > 10000 nM | 2.2 nM | 4.6 nM | > 10000 nM |  |  |  |  |  |  |  | 
6 | CO[C@H]1CCN(c2cc(NC(=O)N3CCCc4cc(CN5CCCCOC5=O)c(C=O)nc43)ncc2C#N)C1 [Example 32] | > 10000 nM | 3.1 nM | 5.8 nM | > 10000 nM |  |  |  |  |  |  |  | 
7 | N#Cc1cnc(NC(=O)N2CCCc3cc(CN4CCCCOC4=O)c(C=O)nc32)cc1N[C@H]1CCOC1 [Example 33] | > 10000 nM | 3.7 nM | 7.2 nM | > 10000 nM |  |  |  |  |  |  |  | 
8 | CO[C@@H]1CCN(c2cc(NC(=O)N3CCCc4cc(CN5CCCCOC5=O)c(C=O)nc43)ncc2C#N)C1 [Example 31, (R)-N-(5-Cyano-4-(3-methoxypyrrolidin-1-yl)pyridin-2-yl)-7-formyl-6-((2-carbonyl-1,3-oxazepin-3-yl)methyl)-3,4-dihydro-1,8-naphthyridin-1(2H)-carboxamide] | > 10000 nM |  | 6.5 nM | > 10000 nM | 2 h | 1920 ng·h/mL | 1920 ng·h/mL | 1.27 h | 4.54 h | 3720 ng/mL |  | 
9 | COc1ccncc1Nc1cc(NC(=O)N2CCCc3cc(CN4CCOCC4=O)c(C=O)nc32)ncc1C#N [Example 58, N-(5-Cyano-4-((4-methoxypyridin-3-yl)amino)pyridin-2-yl)-7-formyl-6-((3-carbonylmorpholino)methyl)-3,4-dihydro-1,8-naphthyridin-1(2H)-carboxamide] | > 10000 nM | 6.9 nM | 20.7 nM | > 10000 nM |  |  |  |  |  |  |  | 
10 | COC1(CNc2cc(NC(=O)N3CCCc4cc(CN5CCOCC5=O)c(C=O)nc43)ncc2C#N)CC1 [Example 9, N-(5-Cyano-4-(((1-methoxycyclopropyl)methyl)amino)pyridin-2-yl)-7-formyl-6-((3-carbonylmorpholino)methyl)-3,4-dihydro-1,8-naphthyridin-1(2H)-carboxamide] | > 10000 nM | 1.4 nM | 9.1 nM | > 10000 nM |  |  |  |  |  |  |  | 
11 | CO[C@H]1CCOCC1Oc1cc(NC(=O)N2CCCc3cc(CN4CCOCC4=O)c(C=O)nc32)ncc1C#N (stereo partly drawn) [Example 68, N-(5-Cyano-4-(((3,4)-trans-4-methoxytetrahydro-2H-pyran-3-yl)oxy)pyridin-2-yl) -7-formyl-6-((3-carbonylmorpholino)methyl)-3,4-dihydro-1,8-naphthyridin-1(2H)-carboxamide] | > 10000 nM |  | 40.8 nM | > 10000 nM |  |  |  |  |  |  | 10.9 nM | 
12 | CO[C@H]1CCOCC1Oc1cc(NC(=O)N2CCCc3cc(CN4CCOCC4=O)c(C=O)nc32)ncc1C#N (stereo partly drawn) [Example 69, N-(5-Cyano-4-(((3,4)-trans-3-methoxytetrahydro-2H-pyran-4-yl)oxy)pyridin-2-yl) -7-formyl-6-((3-carbonylmorpholino)methyl)-3,4-dihydro-1,8-naphthyridin-1(2H)-carboxamide] |  |  |  |  |  |  |  |  |  |  | 22.6 nM | > 10000 nM
13 | CO[C@@H]1CCCC1Nc1cc(NC(=O)N2CCCc3cc(CN4CCOCC4=O)c(C=O)nc32)ncc1C#N (stereo partly drawn) [Example 1, N-(5-Cyano-4-(((trans)-2-methoxycyclopentyl)amino)pyridin-2-yl)-7-formyl-6-((3-carbonylmorpholino)methyl)-3,4-dihydro-1,8-naphthyridin-1(2H)-carboxamide] |  | 0.7 nM | 3 nM | > 10000 nM | 0.5 h | 1010 ng·h/mL | 5040 ng·h/mL | 1.1 h | 1.1 h | 1140 ng/mL |  | 
14 | CO[C@@H]1CCN(c2cc(NC(=O)N3CCCc4cc(CN5CCCOC5=O)c(C=O)nc43)ncc2C#N)C1 [Example 49, (R)-N-(5-Cyano-4-(3-methoxypyrrolidin-1-yl)pyridin-2-yl)-7-formyl-6-((2-carbonyl-1,3-oxazinan-3-yl)methyl)-3,4-dihydro-1,8-naphthyridin-1(2H)-carboxamide] | > 10000 nM | 4.4 nM | 11.3 nM | > 10000 nM |  |  |  |  |  |  |  | 
15 | COC1CN(c2cc(NC(=O)N3CCCc4cc(CN5CCOCC5=O)c(C=O)nc43)ncc2C#N)C1 [Example 53, N-(5-Cyano-4-(3-methoxyazetidin-1-yl)pyridin-2-yl)-7-formyl-6-((3-carbonylmorpholino)methyl)-3,4-dihydro-1,8-naphthyridin-1(2H)-carboxamide] | > 10000 nM | 41.5 nM |  | > 10000 nM |  |  |  |  |  |  |  | 

— patent US11667631B2, “FGFR4 inhibitor, preparation method therefor, and applications thereof” (Jiangsu Hansoh Pharmaceutical Group Co., Ltd., priority 2016, dated 2023)
